What was measured:
hJAK2 = hJAK2 (Homo sapiens (Human), UniProt O60674); experiment: hJAK2 LANCE TR-FRET enzymatic assay; assay type: biochemical; settings: read-out: JAK2 IC50
IKKε = IKKε (Homo sapiens (Human), UniProt Q14164); experiment: IKKε TR-FRET enzymatic assay; assay type: biochemical; settings: 2x Km ATP, geometric mean of at least four determinations, read-out: IKKe IC50
TBK1 = TBK1 (Homo sapiens (Human), UniProt Q9UHD2); experiment: TBK1 TR-FRET enzymatic assay; settings: read-out: TBK1 IC50, 2x Km ATP, geometric mean of at least four determinations
TBK1, sequence (Q9UHD2 whole entry): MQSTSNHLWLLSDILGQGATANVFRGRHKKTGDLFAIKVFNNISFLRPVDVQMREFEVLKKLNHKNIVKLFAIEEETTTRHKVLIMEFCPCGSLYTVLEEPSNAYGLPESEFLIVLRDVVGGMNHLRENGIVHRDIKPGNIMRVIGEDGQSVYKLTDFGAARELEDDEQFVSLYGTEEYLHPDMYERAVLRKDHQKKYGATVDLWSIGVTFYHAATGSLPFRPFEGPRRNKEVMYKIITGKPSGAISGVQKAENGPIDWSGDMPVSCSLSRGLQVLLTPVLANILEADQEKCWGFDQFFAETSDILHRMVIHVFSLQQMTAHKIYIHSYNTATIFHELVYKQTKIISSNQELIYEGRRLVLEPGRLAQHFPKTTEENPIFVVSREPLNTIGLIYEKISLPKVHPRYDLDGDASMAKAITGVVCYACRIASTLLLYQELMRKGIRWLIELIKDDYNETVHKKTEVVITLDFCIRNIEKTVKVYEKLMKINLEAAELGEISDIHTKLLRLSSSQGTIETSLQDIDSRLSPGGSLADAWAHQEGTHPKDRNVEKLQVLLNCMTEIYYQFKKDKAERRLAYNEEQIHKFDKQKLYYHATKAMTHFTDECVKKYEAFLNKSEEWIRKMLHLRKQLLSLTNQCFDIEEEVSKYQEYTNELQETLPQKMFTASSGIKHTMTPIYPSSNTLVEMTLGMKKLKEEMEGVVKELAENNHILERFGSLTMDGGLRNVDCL
Experimental: Enzymatic activity of IKKε and TBK1 was measured using a homogeneous time resolved fluorescence resonance energy transfer (TR-FRET) assay that monitors enzyme dependent phosphorylation of a biotinylated serine/threonine peptide substrate. […] TBK1 and IKKε were expressed and purified as full length recombinant proteins. Detection reagents for the assay were purchased from Cisbio. […] After an assay reaction time of 240 minutes at 25° C., reactions were terminated with EDTA.
All IC50 values represent geometric mean values of a minimum of four determinations.

hJAK2, sequence (O60674 whole entry): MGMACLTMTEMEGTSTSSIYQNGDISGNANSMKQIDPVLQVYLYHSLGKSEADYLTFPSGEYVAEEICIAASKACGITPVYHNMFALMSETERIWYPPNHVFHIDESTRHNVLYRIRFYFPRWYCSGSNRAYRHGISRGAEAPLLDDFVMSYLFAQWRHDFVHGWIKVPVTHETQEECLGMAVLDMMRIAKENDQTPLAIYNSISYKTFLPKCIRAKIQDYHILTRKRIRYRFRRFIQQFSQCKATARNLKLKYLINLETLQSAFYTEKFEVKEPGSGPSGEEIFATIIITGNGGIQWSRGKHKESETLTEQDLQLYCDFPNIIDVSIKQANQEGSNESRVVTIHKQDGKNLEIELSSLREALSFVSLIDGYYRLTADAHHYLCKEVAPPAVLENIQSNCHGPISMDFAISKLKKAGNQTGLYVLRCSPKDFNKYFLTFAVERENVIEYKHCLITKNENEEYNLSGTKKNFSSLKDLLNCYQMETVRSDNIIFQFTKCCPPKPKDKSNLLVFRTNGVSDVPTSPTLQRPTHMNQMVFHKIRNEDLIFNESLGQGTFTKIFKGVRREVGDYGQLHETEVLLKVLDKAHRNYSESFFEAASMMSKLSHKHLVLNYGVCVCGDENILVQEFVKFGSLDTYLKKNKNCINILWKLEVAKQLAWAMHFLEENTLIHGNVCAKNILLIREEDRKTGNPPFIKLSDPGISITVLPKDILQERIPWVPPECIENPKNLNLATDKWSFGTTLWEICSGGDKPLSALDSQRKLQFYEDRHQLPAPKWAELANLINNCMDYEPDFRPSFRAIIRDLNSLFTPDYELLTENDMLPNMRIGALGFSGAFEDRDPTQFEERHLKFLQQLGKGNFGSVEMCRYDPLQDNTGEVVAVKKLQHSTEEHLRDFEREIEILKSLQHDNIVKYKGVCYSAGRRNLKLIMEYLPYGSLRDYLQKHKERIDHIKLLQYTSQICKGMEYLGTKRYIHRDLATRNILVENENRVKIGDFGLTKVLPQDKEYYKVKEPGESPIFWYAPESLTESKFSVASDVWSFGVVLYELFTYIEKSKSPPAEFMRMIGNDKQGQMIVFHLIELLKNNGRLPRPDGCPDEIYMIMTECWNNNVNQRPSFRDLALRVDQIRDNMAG
IKKε, sequence (Q14164 whole entry): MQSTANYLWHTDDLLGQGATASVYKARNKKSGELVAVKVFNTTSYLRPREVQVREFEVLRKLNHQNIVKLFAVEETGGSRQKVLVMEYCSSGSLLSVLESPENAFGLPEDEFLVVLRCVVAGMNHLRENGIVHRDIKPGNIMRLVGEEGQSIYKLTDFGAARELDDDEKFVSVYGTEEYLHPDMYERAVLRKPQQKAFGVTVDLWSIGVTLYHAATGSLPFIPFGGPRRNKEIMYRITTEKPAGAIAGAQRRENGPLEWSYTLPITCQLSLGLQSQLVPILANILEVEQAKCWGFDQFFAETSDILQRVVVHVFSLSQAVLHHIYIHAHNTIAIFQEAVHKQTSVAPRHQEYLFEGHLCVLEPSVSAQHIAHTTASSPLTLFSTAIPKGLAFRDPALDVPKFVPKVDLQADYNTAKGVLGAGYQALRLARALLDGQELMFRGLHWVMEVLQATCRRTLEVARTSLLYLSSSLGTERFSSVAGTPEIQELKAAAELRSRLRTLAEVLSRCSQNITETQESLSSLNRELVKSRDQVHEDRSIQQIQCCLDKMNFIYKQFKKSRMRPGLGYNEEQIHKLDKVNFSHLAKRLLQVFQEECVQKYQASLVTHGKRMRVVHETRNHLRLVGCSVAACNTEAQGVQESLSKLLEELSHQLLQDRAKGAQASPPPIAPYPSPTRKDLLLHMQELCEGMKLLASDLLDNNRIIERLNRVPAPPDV

Compound	IC50 (hJAK2)	IC50 (IKKε)	IC50 (TBK1)
2-(((3R,4S)-1-((R)-4,4-difluoropyrrolidine-2-carbonyl)-3-fluoropiperidin-4-yl)oxy)-5-(4-((4-(4-(oxetan-3-yl)piperazin-1-yl)phenyl)amino)-1,3,5-triazin-2-yl)benzonitrile [Example 132]	1000 nM	51 nM	25 nM
2-(((3R,4S)-3-fluoro-1-((S)-pyrrolidine-2-carbonyl)piperidin-4-yl)oxy)-5-(4-((4-(4-(oxetan-3-yl)piperazin-1-yl)phenyl)amino)-1,3,5-triazin-2-yl)benzonitrile [Example 133]	1000 nM	1000 nM	
N#Cc1cc(-c2ncnc(Nc3cnn(C(F)F)c3)n2)ccc1O[C@H]1CCNC[C@H]1F [Example 453, 5-(4-((1-(difluoromethyl)-1H-pyrazol-4-yl)amino)-1,3,5-triazin-2-yl)-2-(((3R,4S)-3-fluoropiperidin-4-yl)oxy)benzonitrile]			359 nM
